From patent publication US20060229433A1, “Modified antiviral peptides with increased activity and cell membrane affinity” (priority 2003, published 2006)
Values joined by “and” are separate entries in the source; they are usually repeats but may differ in a detail not shown here. Identical values can stand only once. Square brackets hold non-standard residues; d marks the D form. Peptide text beside a SMILES is read from it. Ava = NCCCCC(=O)O

Key:
Assay type in all cases: cell-based
HIV-1 NL 4-3 [1] = experiment: HIV-1 infection of C8166 cells (syncytia formation, p24 ELISA) with HIV-1 NL 4-3; set-up: key: ++, +, (+), (+)− and − represent decreasing numbers of syncitia formed; ++, +, (+), (+)− and − represent decreasing numbers of syncitia formed; ++, +, (+), (+)− and − represent decreasing numbers of syncitia formed; ++, +, (+), (+)− and − represent decreasing numbers of syncitia formed; ++, +, (+), (+)− and − represent decreasing numbers of syncitia formed; details: Table 6
Method: (§1) HIV-1 NL 4-3 isolate (Adachi et al., 1986; Barré-Sinoussi et al., 1983) and highly cytopathic Zairian HIV-1 NDK isolate (Ellrodt et al., 1984) was propagated in permissive CEM cells (Nara et al., 1987). Uninfected CEM and C8166 (Salahuddin et al., 1983) were maintained in RPMI 1640 (R10) with ultraglutamine (cambrex, Vervier, Belgium), penicillin (100 U/ml), streptomycin (100 μg/ml), and 10% heat-inactivated fetal calf serum (Cambrex).
(§2) Samples of 3×10^5/100 μL C8166 cells were preincubated in 96-well microtiter plates in culture medium containing various concentrations of peptide. After a 1 h treatment at 37° C., 100 μl of diluted viral solution of HIV-1 was added. The cells were exposed to the virus for 1 h at 37° C. at a multiplicity of infection of 1000 TCID50 per ml. The cells were washed three times and cultured at 3×10^5/ml of R10 with the treatment in 24-well plates incubated at 37° C. C8166 culture medium was replaced at Day-4 post-infection. The treatment was permanent before virus adsorption, during virus adsorption and after infection. Assays on C8166 cells have been performed at least twice and in duplicate. Toxicity was evaluated by daily cell count and trypan-blue exclusion assay. Infection of C8166 T-cells with HIV-1 was assessed by virus-induced cytopathic effects (syncytia formation) and by quantification of cell free p24 viral protein in the culture supernatants. Measurements of HIV-1 p24^gag concentration in the culture supernatants were achieved by ELISA (ALLIANCE® HIV-1 p24 kit, Perkin Elmer, life sciences, USA).

HIV-1 NL 4-3 [2] = experiment: as above; set-up: key to syncitia formed, Day 4 / syncitia formed, Day 5 / syncitia formed, Day 6 / syncitia formed, Day 7: ++, +, (+), (+)− and − represent decreasing numbers of syncitia formed; ++, +, (+), (+)− and − represent decreasing numbers of syncitia formed; ++, +, (+), (+)− and − represent decreasing numbers of syncitia formed; ++, +, (+), (+)− and − represent decreasing numbers of syncitia formed; ++, +, (+), (+)− and − represent decreasing numbers of syncitia formed
Method: as §1, §2

HIV-1 NDK = experiment: HIV-1 infection of C8166 cells (syncytia formation, p24 ELISA) with HIV-1 NDK; set-up: key to syncitia formed, Day 4 / syncitia formed, Day 5 / syncitia formed, Day 6 / syncitia formed, Day 7: ++, +, (+), (+)− and − represent decreasing numbers of syncitia formed; ++, +, (+), (+)− and − represent decreasing numbers of syncitia formed; ++, +, (+), (+)− and − represent decreasing numbers of syncitia formed; ++, +, (+), (+)− and − represent decreasing numbers of syncitia formed; ++, +, (+), (+)− and − represent decreasing numbers of syncitia formed; details: for P 24: P 24 after Day 7
Method: as §1, §2

[3] = C8166 cells, HIV-1 subtype B NL 4-3, Table 9, two lines = tested twice, 8 days apart

NCC(=O)N1CCC[C@H]1C(=O)NCC(=O)NCCCCC(=O)O [GPG valeric acid, GPG-NHCH2CH2CH2CH2COOH] (H-GPG[Ava]-OH; N-terminus assumed)
−: Day 4 syncitia formed (HIV-1 NL 4-3 [1]; 0.005 μM) | Day 4 syncitia formed (HIV-1 NL 4-3 [1]; 0.01 μM) | Day 4 syncitia formed (HIV-1 NL 4-3 [1]; 0.05 μM) | Day 5 syncitia formed (HIV-1 NL 4-3 [1]; 0.05 μM) | Day 4 syncitia formed (HIV-1 NL 4-3 [1]; 0.1 μM) | Day 5 syncitia formed (HIV-1 NL 4-3 [1]; 0.1 μM) | Day 4 syncitia formed (HIV-1 NL 4-3 [1]; 0.5 μM) | Day 5 syncitia formed (HIV-1 NL 4-3 [1]; 0.5 μM) | Day 6 syncitia formed (HIV-1 NL 4-3 [1]; 0.5 μM) | Day 7 syncitia formed (HIV-1 NL 4-3 [1]; 0.5 μM) | Day 4 syncitia formed (HIV-1 NL 4-3 [1]; 1 μM) | Day 5 syncitia formed (HIV-1 NL 4-3 [1]; 1 μM) | Day 6 syncitia formed (HIV-1 NL 4-3 [1]; 1 μM) | Day 7 syncitia formed (HIV-1 NL 4-3 [1]; 1 μM) | Day 4 syncitia formed (HIV-1 NL 4-3 [1]; 5 μM) | Day 5 syncitia formed (HIV-1 NL 4-3 [1]; 5 μM) | Day 6 syncitia formed (HIV-1 NL 4-3 [1]; 5 μM) | Day 7 syncitia formed (HIV-1 NL 4-3 [1]; 5 μM) | syncitia formed, Day 4 (HIV-1 NL 4-3 [2]; 0.01 μM, C8166 cells) | syncitia formed, Day 4 (HIV-1 NL 4-3 [2]; 0.05 μM, C8166 cells) | syncitia formed, Day 5 (HIV-1 NL 4-3 [2]; 0.05 μM, C8166 cells) | syncitia formed, Day 4 (HIV-1 NL 4-3 [2]; 0.1 μM, C8166 cells) | syncitia formed, Day 5 (HIV-1 NL 4-3 [2]; 0.1 μM, C8166 cells) | syncitia formed, Day 4 (HIV-1 NL 4-3 [2]; 0.5 μM, C8166 cells) | syncitia formed, Day 5 (HIV-1 NL 4-3 [2]; 0.5 μM, C8166 cells) | syncitia formed, Day 6 (HIV-1 NL 4-3 [2]; 0.5 μM, C8166 cells) | syncitia formed, Day 4 (HIV-1 NL 4-3 [2]; 1 μM, C8166 cells) | syncitia formed, Day 5 (HIV-1 NL 4-3 [2]; 1 μM, C8166 cells) | syncitia formed, Day 6 (HIV-1 NL 4-3 [2]; 1 μM, C8166 cells) | syncitia formed, Day 7 (HIV-1 NL 4-3 [2]; 1 μM, Day 7, C8166 cells) | syncitia formed, Day 4 (HIV-1 NL 4-3 [2]; 5 μM, C8166 cells) | syncitia formed, Day 5 (HIV-1 NL 4-3 [2]; 5 μM, C8166 cells) | syncitia formed, Day 6 (HIV-1 NL 4-3 [2]; 5 μM, C8166 cells) | syncitia formed, Day 7 (HIV-1 NL 4-3 [2]; 5 μM, Day 7, C8166 cells) | syncitia formed, Day 4 (HIV-1 NDK; 0.05 μM) | syncitia formed, Day 4 (HIV-1 NDK; 0.1 μM) | syncitia formed, Day 5 (HIV-1 NDK; 0.1 μM) | syncitia formed, Day 4 (HIV-1 NDK; 0.5 μM) | syncitia formed, Day 5 (HIV-1 NDK; 0.5 μM) | syncitia formed, Day 4 (HIV-1 NDK; 1 μM) | syncitia formed, Day 5 (HIV-1 NDK; 1 μM) | syncitia formed, Day 6 (HIV-1 NDK; 1 μM) | syncitia formed, Day 4 (HIV-1 NDK; 5 μM) | syncitia formed, Day 5 (HIV-1 NDK; 5 μM) | syncitia formed, Day 6 (HIV-1 NDK; 5 μM)
11810 pg/mL and 13740 pg/mL: P 24 (HIV-1 NL 4-3 [2]; Day 7, 0.01 μM, Table 6)
11810 pg/mL and 15879 pg/mL: P 24 (HIV-1 NDK; 0.05 μM)
60 pg/mL and 34 pg/mL: P 24 (HIV-1 NL 4-3 [2]; 5 μM, P 24 after Day 7, C8166 cells)
2810 pg/mL and 1840 pg/mL: P 24 (HIV-1 NDK; 1 μM)
3507 pg/mL and 3670 pg/mL: P 24 (HIV-1 NDK; 0.1 μM)
5 µM: IC100 (HIV-1 NDK; HIV 1 NDK, Table 10)
20 nM: IC50 (HIV-1 NDK; HIV 1 NDK, Table 10)
5.6 pg/mL and 3.2 pg/mL: P 24 (HIV-1 NL 4-3 [2]; Day 7, 5 μM, Table 6)
3.5 pg/mL and 5.6 pg/mL: P 24 (HIV-1 NL 4-3 [2]; Day 7, 0.5 μM, Table 6)
++/T: Day 7 syncitia formed (HIV-1 NL 4-3 [2]; 0.005 μM, Table 6)
0.5 µM and 1 µM: IC100 (HIV-1 NL 4-3 [2]; [3])
86 pg/mL and 74 pg/mL: P 24 (HIV-1 NL 4-3 [2]; 1 μM, P 24 after Day 7, C8166 cells)
284 pg/mL and 217 pg/mL: P 24 (HIV-1 NDK; 5 μM)
++: Day 6 syncitia formed (HIV-1 NL 4-3 [1]; 0.005 μM) | Day 7 syncitia formed (HIV-1 NL 4-3 [1]; 0.01 μM) | syncitia formed, Day 7 (HIV-1 NL 4-3 [2]; 0.01 μM, Day 7, C8166 cells) | syncitia formed, Day 6 (HIV-1 NDK; 0.005 μM) | syncitia formed, Day 7 (HIV-1 NDK; 0.005 μM) | syncitia formed, Day 6 (HIV-1 NDK; 0.01 μM) | syncitia formed, Day 7 (HIV-1 NDK; 0.01 μM) | syncitia formed, Day 6 (HIV-1 NDK; 0.05 μM) | syncitia formed, Day 7 (HIV-1 NDK; 0.05 μM) | syncitia formed, Day 7 (HIV-1 NDK; 0.1 μM) | syncitia formed, Day 7 (HIV-1 NDK; 0.5 μM)
+: Day 5 syncitia formed (HIV-1 NL 4-3 [1]; 0.005 μM) | Day 5 syncitia formed (HIV-1 NL 4-3 [1]; 0.01 μM) | Day 6 syncitia formed (HIV-1 NL 4-3 [1]; 0.01 μM) | Day 7 syncitia formed (HIV-1 NL 4-3 [1]; 0.05 μM) | Day 7 syncitia formed (HIV-1 NL 4-3 [1]; 0.1 μM) | syncitia formed, Day 6 (HIV-1 NL 4-3 [2]; 0.01 μM, C8166 cells) | syncitia formed, Day 7 (HIV-1 NL 4-3 [2]; 0.05 μM, Day 7, C8166 cells) | syncitia formed, Day 7 (HIV-1 NL 4-3 [2]; 0.1 μM, Day 7, C8166 cells) | syncitia formed, Day 5 (HIV-1 NDK; 0.005 μM) | syncitia formed, Day 5 (HIV-1 NDK; 0.01 μM) | syncitia formed, Day 6 (HIV-1 NDK; 0.1 μM) | syncitia formed, Day 6 (HIV-1 NDK; 0.5 μM) | syncitia formed, Day 7 (HIV-1 NDK; 1 μM)
5.636 pg/mL and 4.8 pg/mL: P 24 (HIV-1 NL 4-3 [2]; Day 7, 1 μM, Table 6)
3810 pg/mL and 2300 pg/mL: P 24 (HIV-1 NL 4-3 [2]; 0.05 μM, P 24 after Day 7, C8166 cells)
2578 pg/mL and 3140 pg/mL: P 24 (HIV-1 NDK; 0.5 μM)
108 pg/mL and 130 pg/mL: P 24 (HIV-1 NL 4-3 [2]; 0.1 μM, P 24 after Day 7, C8166 cells)
(+): Day 6 syncitia formed (HIV-1 NL 4-3 [1]; 0.05 μM) | Day 6 syncitia formed (HIV-1 NL 4-3 [1]; 0.1 μM) | syncitia formed, Day 5 (HIV-1 NL 4-3 [2]; 0.01 μM, C8166 cells) | syncitia formed, Day 6 (HIV-1 NL 4-3 [2]; 0.05 μM, C8166 cells) | syncitia formed, Day 6 (HIV-1 NL 4-3 [2]; 0.1 μM, C8166 cells) | syncitia formed, Day 7 (HIV-1 NL 4-3 [2]; 0.5 μM, Day 7, C8166 cells) | syncitia formed, Day 4 (HIV-1 NDK; 0.005 μM) | syncitia formed, Day 4 (HIV-1 NDK; 0.01 μM) | syncitia formed, Day 5 (HIV-1 NDK; 0.05 μM) | syncitia formed, Day 7 (HIV-1 NDK; 5 μM)
10 nM: IC50 (HIV-1 NL 4-3 [2]; [3])
23810 pg/mL: P 24 (HIV-1 NL 4-3 [2]; Day 7, 0.005 μM, Table 6) | P 24 (HIV-1 NDK; 0.005 μM) | P 24 (HIV-1 NDK; 0.01 μM)
